# From PubChem BioAssay AID248 (DTP/NCI, 2004)
# Where “and” joins values, the source holds several entries; their conditions need not be identical. Equal entries are not always repeated. Toxic doses and inconclusive results are not listed.
# Test system: L1210 leukemia ip in BDF1 mice, survival T/C
# Assay: NCI In Vivo Anticancer Drug Screen. Data for tumor model L1210 Leukemia (intraperitoneal) in B6D2F1 (BDF1) mice
# Settings: endpoint: mean survival time, higher = longer survival
# In short: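 Read-out is survival time, reported as the treated-group measurement over the vehicle-control measurement.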
# [1] = dose: 100.0 mg/kg/injection, schedule: Q01DX001 (ip), vehicle: saline
# [2] = dose: 200.0 mg/kg/injection, schedule: Q01DX001 (ip), vehicle: saline
# [3] = dose: 400.0 mg/kg/injection, schedule: Q01DX001 (ip), vehicle: saline
# [4] = dose: 100.0 mg/kg/injection, schedule: Q01DX009 (ip), vehicle: Klucel (hydroxypropylcellulose) (HPC)
# [5] = dose: 100.0 mg/kg/injection, schedule: Q04DX003 (ip), vehicle: saline
# [6] = dose: 200.0 mg/kg/injection, schedule: Q01DX009 (ip), vehicle: Klucel (hydroxypropylcellulose) (HPC)
# [7] = dose: 200.0 mg/kg/injection, schedule: Q04DX003 (ip), vehicle: saline
# [8] = dose: 400.0 mg/kg/injection, schedule: Q01DX009 (ip), vehicle: Klucel (hydroxypropylcellulose) (HPC)
# [9] = dose: 400.0 mg/kg/injection, schedule: Q04DX003 (ip), vehicle: saline
# [10] = dose: 100.0 mg/kg/injection, schedule: Q01DX001 (ip), vehicle: carboxymethylcellulose (CMC)
# [11] = dose: 200.0 mg/kg/injection, schedule: Q01DX001 (ip), vehicle: carboxymethylcellulose (CMC)
# [12] = dose: 400.0 mg/kg/injection, schedule: Q01DX001 (ip), vehicle: carboxymethylcellulose (CMC)
# [13] = dose: 100.0 mg/kg/injection, schedule: Q04DX003 (ip), vehicle: Klucel (hydroxypropylcellulose) (HPC)
# [14] = dose: 200.0 mg/kg/injection, schedule: Q04DX003 (ip), vehicle: Klucel (hydroxypropylcellulose) (HPC)
# [15] = dose: 400.0 mg/kg/injection, schedule: Q04DX003 (ip), vehicle: Klucel (hydroxypropylcellulose) (HPC)
# [16] = dose: 100.0 mg/kg/injection, schedule: Q04DX002 (ip), vehicle: Klucel (hydroxypropylcellulose) (HPC)
# [17] = dose: 200.0 mg/kg/injection, schedule: Q04DX002 (ip), vehicle: Klucel (hydroxypropylcellulose) (HPC)
# [18] = dose: 400.0 mg/kg/injection, schedule: Q04DX002 (ip), vehicle: Klucel (hydroxypropylcellulose) (HPC)
# [19] = dose: 50.0 mg/kg/injection, schedule: Q01DX009 (ip), vehicle: saline with Tween-80
# [20] = dose: 100.0 mg/kg/injection, schedule: Q01DX009 (ip), vehicle: saline with Tween-80
# [21] = dose: 200.0 mg/kg/injection, schedule: Q01DX009 (ip), vehicle: saline with Tween-80
smiles,measurement,setting,value
O=S(=O)(c1ccccc1)C1CCCC1Cl (configuration not stated),T/C,[1],104 % of control
same,T/C,[2],96 % of control
same,T/C,[3],100 % of control
CCCCC(CCCC)=NNc1ccc([N+](=O)[O-])cc1[N+](=O)[O-],T/C,[1],96 % of control
same,T/C,[2],102 % of control
same,T/C,[3],107 % of control
CC1=CC(C)(C)NC(=S)N1,T/C,[4],97 % of control
same,T/C,[5],113 % of control
same,T/C,[6],101 % of control
same,T/C,[7],106 % of control
same,T/C,[8],98 % of control
same,T/C,[9],107 % of control
Cc1cc(Nc2ncnc(Cl)c2N)ccc1N,T/C,[10],93 % of control
same,T/C,[11],98 % of control
same,T/C,[12],96 % of control
CCSC(SCC)C(SCC)C(OC(=O)c1ccccc1)C(OC(=O)c1ccccc1)C(COC(=O)c1ccccc1)OC(=O)c1ccccc1 (configuration not stated),T/C,[10],114 % of control
same,T/C,[11],112 % of control
same,T/C,[12],93 % of control
O=C1/C(=C/c2ccccn2)COc2ccccc21,T/C,"dose: 100.0 mg/kg/injection, schedule: Q04DX003 (ip), vehicle: carboxymethylcellulose (CMC)",93 % of control
same,T/C,"dose: 200.0 mg/kg/injection, schedule: Q04DX003 (ip), vehicle: carboxymethylcellulose (CMC)",95 % of control
same,T/C,"dose: 400.0 mg/kg/injection, schedule: Q04DX003 (ip), vehicle: carboxymethylcellulose (CMC)",103 % of control
COC(=O)c1n[nH]c(C2OCC3OC(C)(C)OC32)c1I (configuration not stated),T/C,"dose: 100.0 mg/kg/injection, schedule: Q01DX005 (ip), vehicle: saline",98 % of control
same,T/C,"dose: 200.0 mg/kg/injection, schedule: Q01DX005 (ip), vehicle: saline",98 % of control
Cc1ccc(C(C)C)c(OCC2C(=O)C3CCN2CC3)c1 (configuration not stated),T/C,"dose: 12.5 mg/kg/injection, schedule: Q04DX003 (ip), vehicle: Klucel (hydroxypropylcellulose) (HPC)",101 % of control
same,T/C,"dose: 25.0 mg/kg/injection, schedule: Q04DX003 (ip), vehicle: Klucel (hydroxypropylcellulose) (HPC)",101 % of control
same,T/C,"dose: 50.0 mg/kg/injection, schedule: Q04DX003 (ip), vehicle: Klucel (hydroxypropylcellulose) (HPC)",95 % of control
O=S(=O)(c1ccc(Nc2nnc(-c3ccccc3)s2)cc1)N1CCCCC1,T/C,[4],96 % of control
same,T/C,[6],89 % of control
same,T/C,[8],86 % of control
Cc1cccc(CNCC(=O)O)c1,T/C,"dose: 100.0 mg/kg/injection, schedule: Q01DX009 (ip), vehicle: saline",105 % of control
same,T/C,[5],92 % of control
same,T/C,"dose: 200.0 mg/kg/injection, schedule: Q01DX009 (ip), vehicle: saline",92 % of control
same,T/C,[7],98 % of control
same,T/C,"dose: 400.0 mg/kg/injection, schedule: Q01DX009 (ip), vehicle: saline",105 % of control
same,T/C,[9],98 % of control
Nc1ncnc2nc[nH]c12.[Cl][Pt][Cl],T/C,"dose: 100.0 mg/kg/injection, schedule: Q01DX009 (ip), vehicle: water",101 % of control
same,T/C,"dose: 100.0 mg/kg/injection, schedule: Q04DX003 (ip), vehicle: water",94 % of control
same,T/C,"dose: 200.0 mg/kg/injection, schedule: Q01DX009 (ip), vehicle: water",96 % of control
same,T/C,"dose: 200.0 mg/kg/injection, schedule: Q04DX003 (ip), vehicle: water",87 % of control
same,T/C,"dose: 400.0 mg/kg/injection, schedule: Q01DX009 (ip), vehicle: water",90 % of control
same,T/C,"dose: 400.0 mg/kg/injection, schedule: Q04DX003 (ip), vehicle: water",94 % of control
c1ccc2c(C3CO3)c3ccc4ccccc4c3cc2c1 (configuration not stated),T/C,"dose: 100.0 mg/kg/injection, schedule: Q04DX002 (ip), vehicle: other",113 % of control
same,T/C,"dose: 200.0 mg/kg/injection, schedule: Q04DX002 (ip), vehicle: other",179 % of control
same,T/C,"dose: 400.0 mg/kg/injection, schedule: Q04DX002 (ip), vehicle: other",120 % of control
O=[N+]([O-])c1cccc(/C=N/n2cn[nH]c2=S)c1,T/C,[13],94 % of control
same,T/C,[14],94 % of control
same,T/C,[15],96 % of control
CC(c1ccccc1)n1cnc2c(N(CCO)CCO)ncnc21 (configuration not stated),T/C,[1],117 % of control
same,T/C,[2],104 % of control
same,T/C,[3],101 % of control
C#CCNc1ccc(C(=O)OCC)cc1,T/C,"dose: 100.0 mg/kg/injection, schedule: Q04DX002 (ip), vehicle: gum acacia",99 % of control
same,T/C,"dose: 200.0 mg/kg/injection, schedule: Q04DX002 (ip), vehicle: gum acacia",108 % of control
same,T/C,"dose: 400.0 mg/kg/injection, schedule: Q04DX002 (ip), vehicle: gum acacia",92 % of control
CCCCCCCCCCC/C=N\N(C)C,T/C,[16],96 % of control
same,T/C,[17],92 % of control
same,T/C,[18],103 % of control
CC(=O)N(C(C)=O)c1ccc(N=Nc2ccccc2C)cc1C,T/C,[19],94 % of control
same,T/C,[20],86 % of control
same,T/C,[5],94 % of control
same,T/C,[21],106 % of control
same,T/C,[7],94 % of control
same,T/C,[9],92 % of control
O=[N+]([O-])c1ccc(OS(=O)(=O)CS(=O)(=O)Oc2ccc([N+](=O)[O-])cc2)cc1,T/C,[1],109 % of control
same,T/C,[2],114 % of control
CCC1(CC)COC(C)(C(=O)O)OC1,T/C,[20],96 % of control and 95 % of control
same,T/C,[21],89 % of control and 101 % of control
same,T/C,"dose: 400.0 mg/kg/injection, schedule: Q01DX009 (ip), vehicle: saline with Tween-80",90 % of control
O=S(=O)(F)c1ccc(S)c(Cl)c1Cl,T/C,"dose: 25.0 mg/kg/injection, schedule: Q04DX002 (ip), vehicle: saline with Tween-80",102 % of control
same,T/C,"dose: 50.0 mg/kg/injection, schedule: Q04DX002 (ip), vehicle: saline with Tween-80",91 % of control
same,T/C,"dose: 100.0 mg/kg/injection, schedule: Q04DX002 (ip), vehicle: saline with Tween-80",89 % of control
CC#CC(=O)SCCNC(=O)CC,T/C,"dose: 25.0 mg/kg/injection, schedule: Q01DX009 (ip), vehicle: saline with Tween-80",104 % of control
same,T/C,[19],96 % of control
same,T/C,"dose: 100.0 mg/kg/injection, schedule: Q04DX003 (ip), vehicle: saline with Tween-80",103 % of control
same,T/C,"dose: 200.0 mg/kg/injection, schedule: Q04DX003 (ip), vehicle: saline with Tween-80",91 % of control
O=C1CCCCCCCCCCCCCCCO1,T/C,[16],90 % of control
same,T/C,[17],93 % of control
same,T/C,[18],93 % of control
CN(C)C(=O)Nc1ccc2c(c1)OCO2,T/C,"dose: 75.0 mg/kg/injection, schedule: Q01DX009 (ip), vehicle: Klucel (hydroxypropylcellulose) (HPC)",107 % of control
same,T/C,"dose: 100.0 mg/kg/injection, schedule: Q01DX001 (ip), vehicle: Klucel (hydroxypropylcellulose) (HPC)",111 % of control
same,T/C,"dose: 150.0 mg/kg/injection, schedule: Q01DX009 (ip), vehicle: Klucel (hydroxypropylcellulose) (HPC)",110 % of control
same,T/C,"dose: 200.0 mg/kg/injection, schedule: Q01DX001 (ip), vehicle: Klucel (hydroxypropylcellulose) (HPC)",104 % of control
same,T/C,"dose: 300.0 mg/kg/injection, schedule: Q01DX009 (ip), vehicle: Klucel (hydroxypropylcellulose) (HPC)",102 % of control
CCC(C(=O)NC(=O)NO)c1ccccc1 (configuration not stated),T/C,"dose: 100.0 mg/kg/injection, schedule: Q01DX Z (ip), vehicle: carboxymethylcellulose (CMC)",94 % of control
same,T/C,"dose: 300.0 mg/kg/injection, schedule: Q01DX Z (ip), vehicle: carboxymethylcellulose (CMC)",105 % of control
same,T/C,"dose: 400.0 mg/kg/injection, schedule: Q01DX Z (ip), vehicle: carboxymethylcellulose (CMC)",90 % of control
Cc1cccc(C(=O)NNC(=O)c2cccc(C)c2)c1,T/C,[4],106 % of control
same,T/C,[6],108 % of control
O=C(c1ccccc1)C1C(c2ccccc2)N1C1CCCCC1 (configuration not stated),T/C,"dose: 50.0 mg/kg/injection, schedule: Q01DX009 (ip), vehicle: Klucel (hydroxypropylcellulose) (HPC)",95 % of control
same,T/C,[4],97 % of control and 103 % of control
same,T/C,[13],96 % of control and 100 % of control
same,T/C,[6],95 % of control and 89 % of control
same,T/C,[14],93 % of control and 88 % of control
same,T/C,[8],90 % of control and 91 % of control
same,T/C,[15],95 % of control and 100 % of control
Nc1nc(N)c(-c2cccc(Cl)c2)c(CBr)n1,T/C,"dose: 12.5 mg/kg/injection, schedule: Q01DX009 (ip), vehicle: saline",101 % of control
same,T/C,"dose: 25.0 mg/kg/injection, schedule: Q01DX009 (ip), vehicle: saline",102 % of control
same,T/C,"dose: 50.0 mg/kg/injection, schedule: Q01DX009 (ip), vehicle: saline",104 % of control
